Structures are written as SMILES.

This series is described as follows: Zinc dissolution and precipitation in solutions of different pH (naked eye and microscope). The format is physicochemical. The note with it: FIGS. 7A-7C. Here is the method: Zinc dissolution in acidic solution and zinc precipitation or crystallization in neutral or basic solution is shown in the photographs in FIGS. 7A-7C. The tests were carried out by the application of zinc into solutions.

Regarding `[Zn+2]` [zinc], the “solubility of zinc in solution” value reads like this: (acidic conditions) “generally soluble”; (neutral and basic conditions) “tends to crystallize or precipitate”.

The values are drawn from patent US20180071238A1, “Compositions and Methods for Traumatized Tissues Using Zinc Chelators” (Ohio University, priority 2015, published 2018).
